The assay deals with established adjuvant-induced arthritis in rats. The assay is described as follows: Established adjuvant-induced arthritis in rats (therapeutic, paw volume). The settings on record: for ED50: Rattus norvegicus, read-out: Adjuvant Arthritis (ED50%); for ED50 / Adjuvant Arthritis (ED50%): established arthritis, 7 daily doses, ED50% decrease from control paw volume, Tables I-III. Format: in vivo, Charles River Lewis male rats.

From patent US4190666A, “Anti-inflammatory 4,5-diarly-2-(substituted-thio)imidazoles and their corresponding sulfoxides and sulfones” (E. I. Du Pont de Nemours and Company, priority 1978, dated 1980) come the findings set out here.

Like-named read-outs stand apart in the source and are kept apart here.

As a reminder, the ED50 is the dose at which the effect has come halfway, by size or by number of responders. With `CS(=O)(=O)c1nc(-c2ccc(F)cc2)c(-c2ccc(C(F)(F)F)cc2)[nH]1` [Example 87], the ED50 (po) worked out at 3.7 mg/kg. For the compound `Cc1ccc(-c2[nH]c(S(=O)(=O)C(F)(F)C(F)F)nc2-c2ccc(Cl)cc2)cc1` [Example 131], the “percent (%) reduction in paw volume measured at the indicated dose” value (“percent (%) reduction in paw volume” for short) (10 mg./kg., oral) was 36%. `CCC[S+]([O-])c1nc(-c2ccc(OC)cc2)c(-c2ccc(OC)cc2)[nH]1` (stereo not shown) [Example 61]: where the note is “po”, the ED50 came to 13 mg/kg. On to `COc1cccc(-c2nc(S(=O)(=O)C(F)(F)C(F)F)[nH]c2-c2cccc(OC)c2)c1` [Example 84], for which the ED50 (po) came to 4 mg/kg. For the compound `C[S+]([O-])c1nc(-c2ccccc2)c(-c2cccc(F)c2)[nH]1` (stereo not shown) [Example 148], for the setting “100 mg./kg., oral”, the “percent (%) reduction in paw volume” value came out at 67%.

As for `O=S(=O)(c1nc(-c2ccc(Cl)cc2)c(-c2ccc(F)cc2)[nH]1)C(F)(F)C(F)F` [Example 80], the ED50 (po) was 0.09 mg/kg. Still for that read-out and setting: as for `O=S(=O)(c1nc(-c2ccc(F)cc2)c(-c2ccc(F)cc2)[nH]1)C(F)F` [Example 78], the figure is 0.1 mg/kg. On to `CS(=O)(=O)c1nc(-c2ccccc2)c(-c2ccc(Cl)c(Cl)c2)[nH]1` [Example 145], for which the “percent (%) reduction in paw volume” value (50 mg./kg., oral) stood at 59%. For the compound `Fc1ccc(-c2[nH]c(SC(F)(F)C(F)F)nc2-c2ccc(Cl)cc2)cc1` [Example 42], the ED50 (po) came out at 0.18 mg/kg. As to `COc1ccc(-c2nc(SCC(C)=O)[nH]c2-c2ccc(OC)cc2)cc1` [Example 16, 2-Acetonylthio-4,5-bis(4-methoxyphenyl)imidazole], under “po”, the ED50 was found to be 9.4 mg/kg.

Turning to `O=S(=O)(c1nc(-c2ccc(F)cc2)c(-c2ccccc2)[nH]1)C(F)(F)C(F)F` [Example 92, 4(or 5)-(4-fluorophenyl)-5(or 4)-phenyl-2-(1,1,2,2-tetrafluoroethylsulfonyl)imidazole], the ED50 (po) is 0.027 mg/kg. On the same count and under the same terms, as for `O=S(=O)(c1nc(-c2ccccc2)c(-c2ccccc2)[nH]1)C(F)(F)C(Cl)Cl` [Example 76], the figure is 1.5 mg/kg; as for `COc1ccc(-c2nc(SC(F)(F)C(F)F)[nH]c2-c2ccc(OC)cc2)cc1` [Example 38], 4.2 mg/kg; as for `[O-][S+](c1nc(-c2ccccc2)c(-c2ccccc2)[nH]1)C(F)(F)C(F)F` (stereo not shown) [Example 66], 0.18 mg/kg. In the case of `CCCS(=O)(=O)c1nc(-c2ccc(OC)cc2)c(-c2ccc(OC)cc2)[nH]1` [Example 62], under “po”, the ED50 stood at 9 mg/kg.

`COc1ccc(-c2nc(SC(F)(F)F)[nH]c2-c2ccc(OC)cc2)cc1` [Example 107]: the ED50 (po) is 1.5 mg/kg. For `Cc1ccc(-c2nc(S(=O)(=O)C(F)(F)C(F)F)[nH]c2-c2ccccc2)cc1` [Example 96], under “po”, the ED50 was determined as 0.6 mg/kg. As to `O=S(=O)(c1nc(-c2ccccc2)c(-c2ccccc2)[nH]1)C(F)(F)C(F)Br` (stereo not shown) [Example 126], the ED50 (po) was found to be 0.85 mg/kg. In the case of `Fc1ccc(-c2nc(SC(F)(F)C(F)F)[nH]c2-c2ccc(F)cc2)cc1` [Example 40], the ED50 (po) is 0.075 mg/kg.

Turning to `O=S(=O)(c1nc(-c2ccccc2)c(-c2ccccc2)[nH]1)C(F)(F)CF` [Example 124], the ED50 (po) came to 0.15 mg/kg. Still for that read-out and setting: next, `FC(F)(F)Sc1nc(-c2ccccc2)c(-c2ccc(Cl)c(Cl)c2)[nH]1` [Example 111]: 7 mg/kg.

In the case of `FC(F)C(F)(F)Sc1nc(-c2ccc(Cl)cc2)c(-c2ccccc2)[nH]1` [Example 45], the ED50 (po) was determined as 0.3 mg/kg.

For `O=S(=O)(c1nc(-c2ccccc2Cl)c(-c2ccccc2Cl)[nH]1)C(F)(F)C(F)F` [Example 91], the median effective dose (ED50) (po) was 0.8 mg/kg.

For the compound `CCSc1nc(-c2ccc(OC)cc2)c(-c2ccc(OC)cc2)[nH]1` [Example 10, 2-Ethylthio-4,5-bis(4-methoxyphenyl)imidazole], under “po”, the ED50 is 4.7 mg/kg. Same read-out and setting: as for `[O-][S+](CC(F)(F)F)c1nc(-c2ccc(Cl)cc2)c(-c2ccc(Cl)cc2)[nH]1` (stereo not shown) [Example 8, 4,5-bis(4-chlorophenyl)-2-(2,2,2-trifluoroethylsulfinyl)imidazole], the figure is 3 mg/kg.

With `CSc1nc(-c2ccc(Cl)cc2)c(-c2ccc(F)cc2)[nH]1` [Example 33], the ED50 (po) was 3.8 mg/kg. On the same count and under the same terms, as for `[O-][S+](c1nc(-c2ccc(Cl)cc2)c(-c2ccc(Cl)cc2)[nH]1)C(F)(F)C(F)F` (stereo not shown) [Example 68], the figure is 0.2 mg/kg; as for `C=CCSc1nc(-c2ccc(OC)cc2)c(-c2ccc(OC)cc2)[nH]1` [Example 11, 2-Allylthio-4,5-bis(4-methoxyphenyl)imidazole], 22 mg/kg; as for `FC(F)C(F)(F)Sc1nc(-c2ccccc2)c(-c2ccc(Cl)c(Cl)c2)[nH]1` [Example 119], 3 mg/kg.

As to `O=S(=O)(c1nc(-c2cccc(Cl)c2)c(-c2cccc(Cl)c2)[nH]1)C(F)(F)C(F)F` [Example 93], where the note is “po”, the ED50 came to 0.16 mg/kg. For `O=[N+]([O-])c1ccc(-c2nc(S(=O)(=O)C(F)(F)C(F)F)[nH]c2-c2ccc([N+](=O)[O-])cc2)cc1` [Example 135], the 50% effective dose (ED50) (oral) amounted to 8.5 mg/kg.

With `FC(F)C(F)(F)Sc1nc(-c2ccccc2Cl)c(-c2cccc(Cl)c2)[nH]1` [Example 50], the median effective dose (ED50) (po) was 1.2 mg/kg. Same read-out and setting: next, `[O-][S+](c1nc(-c2ccc(F)cc2)c(-c2ccc(F)cc2)[nH]1)C(F)(F)C(F)F` (stereo not shown) [Example 134]: 0.055 mg/kg; `CSc1nc(-c2ccc(Cl)cc2)c(-c2ccc(Cl)cc2)[nH]1` [Example 26, 4,5-bis(4-chlorophenyl)-2-methylthioimidazole]: 3 mg/kg. Consider `CS(=O)(=O)c1nc(-c2ccccc2)c(-c2cccc(Cl)c2)[nH]1` [Example 149], for which, for the setting “10 mg./kg., oral”, the “percent (%) reduction in paw volume” value stood at 55%. As for `Fc1ccc(-c2nc(SC(F)(F)C(F)F)[nH]c2-c2ccc(C(F)(F)F)cc2)cc1` [Example 48], the ED50 (po) stood at 1.5 mg/kg.

In the case of `O=S(=O)(c1nc(-c2ccc(C(F)(F)F)cc2)c(-c2ccccc2)[nH]1)C(F)(F)C(F)F` [Example 89], the ED50 (po) was determined as 2.4 mg/kg. As to `CS(=O)(=O)c1nc(-c2ccccc2)c(-c2ccc(F)cc2)[nH]1` [Example 141], under “9 mg./kg., oral”, the “percent (%) reduction in paw volume” value amounted to 26%. Regarding `CS(=O)(=O)c1nc(-c2ccc(Cl)cc2)c(-c2ccc(F)cc2)[nH]1` [Example 79], the ED50 (po) came out at 2.8 mg/kg. Take `FC(Cl)C(F)(F)Sc1nc(-c2ccccc2)c(-c2ccccc2)[nH]1` (stereo not shown) [Example 41]: where the note is “oral”, the “Adjuvant Arthritis (ED50%)” value stood at 3.9 mg/kg. In the case of `CCCCS(=O)(=O)c1nc(-c2ccc(OC)cc2)c(-c2ccc(OC)cc2)[nH]1` [Example 129], the “percent (%) reduction in paw volume” value (50 mg./kg., oral) is listed as 71%. For the compound `Fc1ccc(-c2nc(SC(F)(F)C(F)(F)F)[nH]c2-c2ccc(F)cc2)cc1` [Example 110], the ED50 (po) was 0.2 mg/kg. Consider `COc1ccc(-c2nc(SC(F)(F)C(F)Br)[nH]c2-c2ccc(OC)cc2)cc1` (stereo not shown) [Example 51, 2-(2-bromo-1,1,2-trifluoroethylthio)-4,5-bis(4-methoxyphenyl)imidazole], for which the “Adjuvant Arthritis (ED50%)” value (oral) worked out at 10 mg/kg. On to `COc1ccc(-c2nc(S(=O)(=O)C(C)C)[nH]c2-c2ccc(OC)cc2)cc1` [Example 63], for which, for the setting “po”, the ED50 stood at 30 mg/kg. With `O=S(=O)(c1nc(-c2ccccc2)c(-c2ccccc2)[nH]1)C(F)(F)F` [Example 103, 4,5-diphenyl-2-trifluoromethylsulfonylimidazole], the ED50 (po) was found to be 0.03 mg/kg. Take `COc1ccc(-c2nc(SC(F)(F)C(F)I)[nH]c2-c2ccc(OC)cc2)cc1` (stereo not shown) [Example 116]: the “Adjuvant Arthritis (ED50%)” value (oral) turned out to be 30 mg/kg. For `O=S(=O)(c1nc(-c2ccccc2)c(-c2cccc(Cl)c2)[nH]1)C(F)(F)C(F)F` [Example 144], for the setting “po”, the ED50 amounted to 0.05 mg/kg.

Take `Fc1ccc(-c2nc(SC(F)F)[nH]c2-c2ccc(F)cc2)cc1` [Example 32]: the ED50 (po) turned out to be 0.42 mg/kg.

In the case of `FC(F)(F)CSc1nc(-c2ccc(Cl)cc2)c(-c2ccc(Cl)cc2)[nH]1` [Example 7, 4,5-bis(4-Chlorophenyl)-2-(2,2,2-trifluoroethylthio)imidazole], where the note is “po”, the ED50 came to 5 mg/kg. Same read-out and setting: next, `CSc1nc(-c2ccc(F)cc2)c(-c2ccc(C(F)(F)F)cc2)[nH]1` [Example 35]: 17 mg/kg; `CC[S+]([O-])c1nc(-c2ccc(OC)cc2)c(-c2ccc(OC)cc2)[nH]1` (stereo not shown) [Example 13, 2-Ethylsulfinyl-4,5-bis(4-methoxyphenyl)imidazole]: 10 mg/kg. For `FC(Br)C(F)(F)Sc1nc(-c2ccccc2)c(-c2ccccc2)[nH]1` (stereo not shown) [Example 52, 2-(2-bromo-1,1,2-trifluoroethylthio)-4,5-diphenylimidazole], the “Adjuvant Arthritis (ED50%)” value (oral) stood at 11 mg/kg. Regarding `O=S(=O)(CC(F)(F)F)c1nc(-c2ccc(F)cc2)c(-c2ccc(F)cc2)[nH]1` [Example 70], the 50% effective dose (ED50) (po) was 3.5 mg/kg.

Take `CSc1nc(-c2ccccc2)c(-c2cccc(Cl)c2)[nH]1` [Example 114]: the “percent (%) reduction in paw volume” value (50 mg./kg., oral) stood at 45%. As to `CCCCSc1nc(-c2ccc(F)cc2)c(-c2ccc(F)cc2)[nH]1` [Example 108], the “percent (%) reduction in paw volume” value (10 mg./kg., oral) is on record as 77%. `CS(=O)(=O)c1nc(-c2ccccc2)c(-c2cccc(F)c2)[nH]1` [Example 147]: the “percent (%) reduction in paw volume” value (75 mg./kg., oral) is on record as 32%.

`CS(=O)(=O)c1nc(-c2ccc(Cl)cc2)c(-c2ccc(C(F)(F)F)cc2)[nH]1` [Example 88]: under “po”, the median effective dose (ED50) came to 2.2 mg/kg. Still for that read-out and setting: as for `COc1ccc(-c2nc(SC(F)F)[nH]c2-c2ccc(OC)cc2)cc1` [Example 29], the figure is 1.8 mg/kg; as for `C[S+]([O-])c1nc(-c2ccccc2)c(-c2ccc(Cl)c(Cl)c2)[nH]1` (stereo not shown) [Example 146], 50 mg/kg; as for `COc1ccc(-c2nc(SC(F)(F)C(F)F)[nH]c2-c2ccccc2)cc1` [Example 44], 20 mg/kg. Still for that read-out and setting: next, `C[S+]([O-])c1nc(-c2ccc(F)cc2)c(-c2ccc(F)cc2)[nH]1` (stereo not shown) [Example 136]: 4 mg/kg. For the compound `CSc1nc(-c2ccc3c(c2)OCO3)c(-c2ccc3c(c2)OCO3)[nH]1` [Example 37], the ED50 (po) stood at 20 mg/kg. On the same count and under the same terms, next, `CSc1nc(-c2ccccc2)c(-c2cccc(F)c2)[nH]1` [Example 113]: 50 mg/kg. In the case of `CCOc1ccc(-c2[nH]c(SC(F)(F)C(F)F)nc2-c2ccccc2)cc1` [Example 118], the “percent (%) reduction in paw volume” value (10 mg./kg., oral) turned out to be 32%.
